In ChEMBL document CHEMBL1155770, “New guinea pig model of Cryptococcal meningitis” (2007):
Converted amounts (≈) assume the structure as drawn. The source made the active and inactive calls. The calls are words filed in the database; no cut-off is given here.

Experiments:
Cryptococcus neoformans [1] = test: Antimicrobial activity against Cryptococcus neoformans USC1597 isolate after 72 hrs; format: functional
Cryptococcus neoformans [2] = test: Antimicrobial activity against 10^7 CFU Cryptococcus neoformans USC1597 isolate intracranially infected in Hartley guinea pig assessed as decrease in kidney […] count at 10 mg/kg, po BID administered 48 hrs postinfection for 13 days; format: functional, organism-based; parameters: dose 10 mg/kg; settings: […]
Cryptococcus neoformans [3] = test: Antimicrobial activity against 9 x 10^6 CFU Cryptococcus neoformans USC1597 isolate intracranially infected in Hartley guinea pig assessed as cerebrospinal fluid […] count per ml at 10 mg/kg, po BID administered 48 hrs postinfection for 13 days; format: functional
Cryptococcus neoformans [4] = test: Antimicrobial activity against 9 x 10^6 CFU Cryptococcus neoformans USC1597 isolate intracranially infected in Hartley guinea pig assessed as kidney […] count per gram at 10 mg/kg, po BID administered 48 hrs postinfection for 13 days; format: functional
Cryptococcus neoformans [5] = test: Antimicrobial activity against 10^7 CFU Cryptococcus neoformans USC1597 isolate intracranially infected in Hartley guinea pig assessed as decrease in cerebrospinal fluid […] count per ml at 10 mg/kg, po BID administered 48 hrs postinfection for 13 days; format: functional
Cryptococcus neoformans [6] = test: Antimicrobial activity against 10^7 CFU Cryptococcus neoformans USC1597 isolate intracranially infected in Hartley guinea pig assessed as decrease in brain […] count at 10 mg/kg, po BID administered 48 hrs postinfection for 13 days; format: functional
Cryptococcus neoformans [7] = test: Antimicrobial activity against 9 x 10^6 CFU Cryptococcus neoformans USC1597 isolate intracranially infected in Hartley guinea pig assessed as brain […] count per gram at 10 mg/kg, po BID administered 48 hrs postinfection for 13 days; format: functional
Cryptococcus neoformans [8] = test: Antimicrobial activity against 9 x 10^6 CFU Cryptococcus neoformans USC1597 isolate intracranially infected in Hartley guinea pig assessed as brain […] count per gram at 5 mg/kg, po BID administered 48 hrs postinfection for 13 days; format: functional
Cryptococcus neoformans [9] = test: Antimicrobial activity against 10^7 CFU Cryptococcus neoformans USC1597 isolate intracranially infected in Hartley guinea pig assessed as decrease in cerebrospinal fluid […] count at 5 mg/kg, po BID administered 48 hrs postinfection for 13 days; format: functional
Cryptococcus neoformans [10] = test: Antimicrobial activity against 10^7 CFU Cryptococcus neoformans USC1597 isolate intracranially infected in Hartley guinea pig assessed as decrease in brain […] count at 20 mg/kg, po BID administered 48 hrs postinfection for 13 days; format: functional
Cryptococcus neoformans [11] = test: Antimicrobial activity against 9 x 10^6 CFU Cryptococcus neoformans USC1597 isolate intracranially infected in Hartley guinea pig assessed as kidney […] count per gram at 5 mg/kg, po BID administered 48 hrs postinfection for 13 days; format: functional
Cryptococcus neoformans [12] = test: Antimicrobial activity against 10^7 CFU Cryptococcus neoformans USC1597 isolate intracranially infected in Hartley guinea pig assessed as decrease in brain […] count at 5 mg/kg, po BID administered 48 hrs postinfection for 13 days; format: functional
Cryptococcus neoformans [13] = test: Antimicrobial activity against 10^7 CFU Cryptococcus neoformans USC1597 isolate intracranially infected in Hartley guinea pig assessed as decrease in cerebrospinal fluid […] count at 20 mg/kg, po BID administered 48 hrs postinfection for 13 days; format: functional
Cryptococcus neoformans [14] = test: Antimicrobial activity against 9 x 10^6 CFU Cryptococcus neoformans USC1597 isolate intracranially infected in Hartley guinea pig assessed as cerebrospinal fluid […] count per ml at 5 mg/kg, po BID administered 48 hrs postinfection for 13 days; format: functional

| Structure (SMILES) | MIC (Cryptococcus neoformans [1]) [µg/mL] | Activity (Cryptococcus neoformans [2]) | log10cfu (Cryptococcus neoformans [3]) | log10cfu (Cryptococcus neoformans [4]) | log10cfu (Cryptococcus neoformans [5]) | log10cfu (Cryptococcus neoformans [6]) | log10cfu (Cryptococcus neoformans [7]) | log10cfu (Cryptococcus neoformans [8]) | log10cfu (Cryptococcus neoformans [9]) | log10cfu (Cryptococcus neoformans [10]) | log10cfu (Cryptococcus neoformans [11]) | log10cfu (Cryptococcus neoformans [12]) | log10cfu (Cryptococcus neoformans [13]) | log10cfu (Cryptococcus neoformans [14]) |
| --- | --- | --- | --- | --- | --- | --- | --- | --- | --- | --- | --- | --- | --- | --- |
| C[C@@H]1[C@H](O)[C@@H](C)/C=C/C=C/C=C/C=C/C=C/C=C/C=C/[C@H](O[C@@H]2O[C@H](C)[C@@H](O)[C@H](N)[C@@H]2O)C[C@@H]2O[C@](O)(C[C@@H](O)C[C@@H](O)[C@H](O)CC[C@@H](O)C[C@@H](O)CC(=O)O[C@H]1C)C[C@H](O)[C@H]2C(=O)O [AMPHOTERICIN B] | 0.25 (≈ 0.271 µM) | – | – | – | – | – | – | – | – | – | – | – | – | – |
| OC(Cn1cncn1)(Cn1cncn1)c1ccc(F)cc1F [FLUCONAZOLE] | 1 (≈ 3.27 µM) | Active | 3.18 | 2.43 | 1 | 2 | 5.25 | – | – | – | – | – | – | – |
| C[C@@H](c1ncncc1F)[C@](O)(Cn1cncn1)c1ccc(F)cc1F [VORICONAZOLE] | 0.006 (≈ 0.0172 µM) | – | – | – | 1.6 | 1.5 | – | 5.99 | 0.7 | 1.5 | 3.01 | 1 | 1 | 4.11 |
